Experimental data as given in US20240197652A1, “KETAMINE IN THE TREATMENT OF […]” (Awakn LS Europe Holdings Limited, priority 2021, published 2024).

Legend:
Type in all cases: in vivo, human
subjects with CSBD = test: Hours of pornography viewed per day, Example 10; settings: for hours of pornography watched daily at 2-week follow up: after 100 mg racemic ketamine sublingual; for hours of pornography watched daily, pre-administration: baseline before 100 mg racemic ketamine sublingual; for % change in hours of pornography viewed: pre-administration to 2-week follow up, 100 mg racemic ketamine sublingual
Experimental: A study was completed on the use of ketamine to treat CSBD. Subjects were assessed for CSBD using the Problematic Pornography Use Scale (PPUS) and were included if they received an PPUS score greater than 3. Three subjects in total were included (CSB1-CSB3). All three were administered sublingual lozenges comprising 100 mg of racemic ketamine.
The treatment protocol commenced in the same way as disclosed in the ketamine in subjects with gambling disorder study completed in EXAMPLE 7, with the exceptions outlined as follows: No behavioural tasks were completed. Self-report measures completed during EXAMPLE 10 included the Emotional Intimacy Measure, the Childhood Trauma Questionnaire, the Generalised Anxiety Disorder-7 (GAD-7), the Morningness-Eveningness Questionnaire (MEQ), and the Problematic Pornography Questionnaire (PPQ), the Acceptance and Action Questionnaire, and the Psychological and Interpersonal Relationship Scales (PAIRS).

[1] = test system: subjects with gambling disorder; test: Problem Gambling Severity Index (PGSI), Example 7; settings: for PGSI score at 2-week follow up / PGSI classification at two-week follow up: after 100 mg racemic ketamine sublingual; for PGSI score, pre-administration / PGSI classification, pre-administration: baseline before 100 mg racemic ketamine sublingual; for % change in PGSI score: pre-administration to 2-week follow up, 100 mg racemic ketamine sublingual
Experimental: A study was completed on the use of ketamine to treat gambling disorder. Subjects were assessed for gambling disorder using the PGSI. Subjects were included if they received a PGSI score greater than 3. Five subjects in total were included (G1-G5). All five subjects were administered ketamine. Blood samples were collected from all five subjects. Blood samples were analysed to determine ketamine and ketamine metabolite levels, and each subject was assessed post-administration to determine the effectiveness of the treatment.
(§1) The study spanned a total of 30 days (not counting initial contact and prescreening). Prescreening of all subjects was conducted by phone, and subjects recorded self-report measures, including the Sensitivity to Punishment and Sensitivity to Reward Questionnaire (SPSRQ) and the Gambling Related Cognitions Questionnaire. Prior to beginning treatment, each subject completed the Beck Depression Inventory (BDI) to determine a baseline depression score. Total scores of 0-13 are minimal, 14-19 are mild, 20-28 are moderate, and 29-63 are severe (Beck, Steer, and Brown, 1996).
On Day 3, each subject returned on-site and was administered ketamine. 100 mg of racemic ketamine was administered in as sublingual lozenges.
(§2) The remaining follow-up sessions were completed online. Follow-up 1 was completed on Day 4, Follow-up 2 on Day 14, and Follow-up 3 on Day 30. At each follow-up session, the same self-report measures and behavioural tasks were completed.
The PGSI classifies potential problem gamblers in four categories based on scores. A score of 0 is a non-problem gambler, a score of between 1 and 2 is a low-risk gamber (mild), a score of 3-7 is a moderate-risk gambler (moderate), and a score of 8 or above is a problem gambler (severe). Subject G4 was classified as a moderate-risk (moderate) gambler pre-administration, and at the two-week follow up was classified as a low-risk (mild) gambler. Subject G5 was classified as a problem (severe) gambler pre-administration, and at the two-week follow up was classified as a low-risk (mild) gambler

[2] = test system: subjects with gambling disorder; test: Gambling Related Cognitions Scale (GRCS), gambling expectancy, Example 7; settings: for problem gambling expectancy score (GRCS) at 2-week follow up: after 100 mg racemic ketamine sublingual; for problem gambling expectancy score (GRCS), pre-administration: baseline before 100 mg racemic ketamine sublingual; for % change in problem gambling expectancy: pre-administration to 2-week follow up, 100 mg racemic ketamine sublingual
Experimental: as §1, §2
The five-factor Gambling Related Cognitions Scale (GRCS) was also assessed. The GRCS evaluates gambling-related cognitive distortions for all types of gamblers, regardless of their gambling activities (poker, slots, horse racing, etc.) (Levesque et al., 2017). The GRCS contains five main domains, including inability to stop, expectancies, predictive control, illusion of control, and interpretative bias (Muela, Navas, and Perales, 2021). Gambling expectancy and inability to stop were predictive of problem gambling.

In the case of `CNC1(c2ccccc2Cl)CCCCC1=O` (racemic) [ketamine, 2-(2-chlorophenyl)-2-(methylamino)-cyclohexanone], the “hours of pornography watched daily at 2-week follow up” value (“hours … at 2-week follow up” below) (subjects with CSBD; subject CSB1) is reported as 0.5 h, the “hours of pornography watched daily, pre-administration” value (“hours … pre-administration” for short) (subjects with CSBD; subject CSB1) is reported as 2 h and the “% change in hours of pornography viewed” value (subjects with CSBD; subject CSB1) is reported as −75%. The “hours … at 2-week follow up” value (subjects with CSBD; subject CSB2) was 3 h, the “hours … pre-administration” value (subjects with CSBD; subject CSB2) was 4 h and the “% change in hours of pornography viewed” value (subjects with CSBD; subject CSB2) was −25%. For the same molecule, the “hours … at 2-week follow up” value (subjects with CSBD; subject CSB3) was 1 h, the “hours … pre-administration” value (subjects with CSBD; subject CSB3) was 1 h and the “PGSI score at 2-week follow up” value ([1]; subject G1) was 5. The “PGSI score, pre-administration” value ([1]; subject G1) was 4, the “% change in PGSI score” value ([1]; subject G1) was “+25%” and the “PGSI score at 2-week follow up” value ([1]; subject G2) was 11. The “PGSI score, pre-administration” value ([1]; subject G2) was 16, the “% change in PGSI score” value ([1]; subject G2) was −31.25% and the “PGSI score at 2-week follow up” value ([1]; subject G3) was 18. For the same molecule, the “PGSI score, pre-administration” value ([1]; subject G3) was 21, the “% change in PGSI score” value ([1]; subject G3) was −14.29% and the “PGSI classification at two-week follow up” value ([1]; subject G4) was “low-risk (mild) gambler (a score of between 1 and 2 is a low-risk gamber (mild))”. For the same molecule, the “PGSI score at 2-week follow up” value ([1]; subject G4) was 1, the “PGSI classification, pre-administration” value ([1]; subject G4) was “moderate-risk (moderate) gambler (a score of 3-7 is a moderate-risk gambler (moderate))” and the “PGSI score, pre-administration” value ([1]; subject G4) was 3. For the same molecule, the “% change in PGSI score” value ([1]; subject G4) was −66.67%, the “PGSI classification at two-week follow up” value ([1]; subject G5) was “low-risk (mild) gambler (a score of between 1 and 2 is a low-risk gamber (mild))” and the “PGSI score at 2-week follow up” value ([1]; subject G5) was 2. The “PGSI classification, pre-administration” value ([1]; subject G5) was “problem (severe) gambler (a score of 8 or above is a problem gambler (severe))”, the “PGSI score, pre-administration” value ([1]; subject G5) was 11 and the “% change in PGSI score” value ([1]; subject G5) was −81.82%. The “problem gambling expectancy score (GRCS) at 2-week follow up” value ([2]; subject G1) was 5.5, the “problem gambling expectancy score (GRCS), pre-administration” value ([2]; subject G1) was 5 and the “% change in problem gambling expectancy” value ([2]; subject G1) was “+10%”. For the same molecule, the “problem gambling expectancy score (GRCS) at 2-week follow up” value ([2]; subject G2) was 2.5, the “problem gambling expectancy score (GRCS), pre-administration” value ([2]; subject G2) was 5.5 and the “% change in problem gambling expectancy” value ([2]; subject G2) was −54.55%. For the same molecule, the “problem gambling expectancy score (GRCS) at 2-week follow up” value ([2]; subject G3) was 4.5, the “problem gambling expectancy score (GRCS), pre-administration” value ([2]; subject G3) was 5.25 and the “% change in problem gambling expectancy” value ([2]; subject G3) was −14.29%. For the same molecule, the “problem gambling expectancy score (GRCS) at 2-week follow up” value ([2]; subject G4) was 2.5, the “problem gambling expectancy score (GRCS), pre-administration” value ([2]; subject G4) was 3.75 and the “% change in problem gambling expectancy” value ([2]; subject G4) was −33.33%. For the same molecule, the “problem gambling expectancy score (GRCS) at 2-week follow up” value ([2]; subject G5) was 1, the “problem gambling expectancy score (GRCS), pre-administration” value ([2]; subject G5) was 1.25 and the “% change in problem gambling expectancy” value ([2]; subject G5) was −20%.
